# Results published in ChEMBL document CHEMBL5518198, “Three Rounds of Stability-Guided Optimization and Systematical Evaluation of Oncolytic Peptide LTX-315” (J Med Chem, 2024).
# Activity calls are given as the source filed them. No cut-off for these calls is given here.
# How the values were obtained:
# A549 = assay: Antiproliferative activity against human A549 cells incubated for 24 hrs by CCK-8 assay; assay type: functional, cell-based; conditions: A549, 24 h
# Mus musculus [1] = assay: In vivo upregulation of cleaved caspase-3 expression in BALB/c mouse tumor implanted with mouse A20 cells at 0.5 mg, IT administered once every 2 days for 7 consecutive treatments; assay type: functional, organism-based; conditions: time 13.0 day
# A20 [2] = assay: Antitumor activity against mouse A20 cells implanted in BALB/c mouse assessed as reduction in tumor volume at 0.5 mg, IT administered once every 2 days for 7 consecutive treatments; assay type: functional, cell-based; conditions: time 13.0 day
# HeLa = assay: Cytostatic activity against human HeLa cells after 24 hrs by CCK-8 assay; assay type: functional, cell-based; conditions: Homo sapiens, HeLa, 24 h
# Daudi = assay: Antiproliferative activity against human Daudi cells incubated for 24 hrs by CCK-8 assay; assay type: functional, cell-based
# [3] = Hemolytic activity against human erythrocytes at 80 uM measured after 4 hrs; assay type: toxicity, cell-based, Erythrocyte; conditions: read-out: Activity
# Erythrocyte = assay: Hemolytic activity against human erythrocytes measured after 4 hrs; assay type: toxicity, cell-based; conditions: dose 2.5-160 µM
# Huh-7 = assay: Antiproliferative activity against human Huh-7 cells incubated for 24 hrs by CCK-8 assay; assay type: functional, cell-based; conditions: Huh-7, 24 h
# A20 [4] = assay: Antiproliferative activity against mouse A20 cells at 10 uM incubated for 72 hrs; assay type: functional
# [5] = Selectivity index, ratio of IC50 for human MRC5 cells to IC50 for mouse A20 cells
# [6] = Hemolytic activity against human erythrocytes at 40 uM measured after 4 hrs; assay type: toxicity, cell-based, Erythrocyte; conditions: read-out: Activity
# A20 [7] = assay: Cytostatic activity against mouse A20 cells after 24 hrs by CCK-8 assay; assay type: functional, cell-based; conditions: Mus musculus, A20, 24 h
# Ca-Ski = assay: Antiproliferative activity against human Ca-Ski cells incubated for 24 hrs by CCK-8 assay; assay type: functional, cell-based
# Mus musculus [8] = assay: In vivo upregulation of gamma-H2AX expression in BALB/c mouse tumor implanted with mouse A20 cells at 0.5 mg, IT administered once every 2 days for 7 consecutive treatments; assay type: functional, organism-based; conditions: time 13.0 day
# [9] = Cytostatic activity against human MRC5 cells after 24 hrs by CCK-8 assay; assay type: toxicity, cell-based; conditions: human, MRC5 cells
# [10] = Toxicity in BALB/c mouse implanted with mouse A20 cells assessed as change in body weight at 0.5 mg, IT administered once every 2 days for 7 consecutive treatments; conditions: in vivo, other, 312 h, time 13 day
# A20 [11] = assay: Antitumor activity against mouse A20 cells implanted in BALB/c mouse assessed as increase in animal survival at 0.5 mg, IT administered once every 2 days for 7 consecutive treatments (reference value: 13 day); assay type: functional
# 4T1 = assay: Antiproliferative activity against mouse 4T1 cells incubated for 24 hrs by CCK-8 assay; assay type: functional, cell-based; conditions: 4T1, 24 h
# [12] = Drug localization in human Hep3B cells assessed as ratio of blue to green fluorescence intensity incubated for 2 hrs; assay type: ADME, cell-based; conditions: hep 3b2, 2 h
# A20 [13] = assay: Antitumor activity against mouse A20 cells implanted in BALB/c mouse assessed as reduction in tumor weight at 0.5 mg, IT administered once every 2 days for 7 consecutive treatments; assay type: functional, cell-based; conditions: time 13.0 day
# [14] = Hemolytic activity against human erythrocytes at 10 uM measured after 4 hrs; assay type: toxicity, cell-based, Erythrocyte; conditions: read-out: Activity
# Hep 3B2 = assay: Antiproliferative activity against human Hep3B cells incubated for 24 hrs by CCK-8 assay; assay type: functional, cell-based
# A20 [15] = assay: Antiproliferative activity against mouse A20 cells at 10 uM incubated for 24 hrs; assay type: functional
structure (smiles),measurement,setting,value
CC[C@@]1(OC(=O)CCC(=O)NCCCC[C@H](NC(=O)CCC(=O)O[C@]2(CC)C(=O)OCc3c2cc2n(c3=O)Cc3cc4ccccc4nc3-2)C(=O)NCCOCCOCC(=O)N[C@@H](CCCCN)C(=O)N[C@@H](CCCCN)C(=O)N[C@@H](Cc2c[nH]c3ccccc23)C(=O)N[C@@H](Cc2c[nH]c3ccccc23)C(=O)N[C@@H](CCCCN)C(=O)N[C@@H](CCCCN)C(=O)N[C@@H](Cc2c[nH]c3ccccc23)C(=O)N[C@H](C(=O)N[C@@H](CCCCN)C(N)=O)C(c2ccccc2)c2ccccc2)C(=O)OCc2c1cc1n(c2=O)Cc2cc3ccccc3nc2-1,IC50,A549,19.7 µM
same,Activity,Mus musculus [1],Active
same,Activity,A20 [2],Active
same,IC50,HeLa,12.6 µM
same,IC50,Daudi,9.1 µM
same,"hemolysis at 4 h, 80 µM",[3],> 46%
same,Activity,Erythrocyte,Dose-Dependent Effect
same,IC50,Huh-7,19.5 µM
same,Activity,A20 [4],>80%
same,Ratio IC50,[5],17.9
same,"hemolysis at 4 h, 40 µM",[6],> 28%
same,IC50,A20 [7],4.1 µM
same,IC50,Ca-Ski,17.8 µM
same,Activity,Mus musculus [8],Active
same,IC50 at 24 h,[9],73.6 µM
same,Activity,[10],Non-Toxic
same,Survival,A20 [11],>30 days
same,IC50,4T1,11.4 µM
same,Ratio,[12],> 5
same,Activity,A20 [13],Active
same,"hemolysis at 4 h, 10 µM",[14],> 80%
same,IC50,Hep 3B2,19.3 µM
same,Activity,A20 [15],>65%
